Measurements published in patent US10894036B2, “Use of marizomib for the treatment of central nervous system (CNS) cancers” (Celgene International II Sàrl, priority 2016, dated 2021).
“And” between values parts separate entries of the source, which are not always exact repeats. Equal entries are not always repeated.

Columns and labels:
[1] = Phase 1b MRZ + TMZ (+RT) in newly diagnosed G4 MG: adverse events, DLT; assay type: in vivo, human
Method: This is a Phase 1b, open-label, 3+3, dose-escalation followed by dose-expansion study in patients with newly diagnosed G4 MG who have not previously received any local or systemic therapy for their G4 MG. The study will examine the effect of the addition of MRZ to standard of care treatment utilizing two study arms: Concomitant Treatment in which MRZ will be combined with TMZ+RT and Adjuvant Treatment in which MRZ will be combined with TMZ. The study will be conducted in two Stages. In Stage 1 (Dose-Escalation): 3 to 6 evaluable patients per MRZ dose cohort will be enrolled in each study arm. […] A total of approximately 48 patients will be enrolled in Stages 1 and 2 combined. Patients may not be enrolled in more than 1 MRZ dose cohort per arm.
Concomitant Treatment consists of a 6 week (42 day) treatment period, followed by a 4 (−1) week break from treatments. All patients will receive intravenous (IV) MRZ infusion on Days 1, 8, 15, 29, and 36 as a 10 minute infusion. IV hydration will be given prior to the infusion. Focal RT will be administered once daily, 5 days/week, for 30 doses over 6 weeks to a total dose of 60 Gy, starting on Day 1. TMZ will be administered once daily, 7 days/week, for 6 weeks, starting on Day 1, at a dose of 75 mg/m^2. Patients who complete Concomitant Treatment may continue on to Adjuvant Treatment.
All patients will receive IV MRZ infusion on Days 1, 8, and 15 as a 10 minute infusion, in 28-day cycles. IV hydration will be given prior to the infusion. TMZ will be administered daily for 5 consecutive days, starting on Day 1 of Cycle 1 (C1D1), at a dose of 150 mg/m^2. If tolerated in Cycle 1, the TMZ dose will be increased on Day 1 of Cycle 2 (C2D1) to a dose of 200 mg/m^2.

20S Proteasome = test: 20S proteasome activity (% inhibition) in rodent brain; assay type: in vivo, mouse; parameters: 20S Proteasome Activity (% Inhibition), Blood, Trough / 20S Proteasome Activity (% Inhibition), Blood, Peak (2 hr) / 20S Proteasome Activity (% Inhibition), Tumor, Trough / 20S Proteasome Activity (% Inhibition), Tumor, Peak (2 hr): concentration or dose not given beside the values; conditions: tumor-bearing mouse, IV; individual mice 1 and 2; listed as BTZ
[2] = tested on: malignant glioma stem-like cells; test: HIF1-α and VEGF levels in malignant glioma stem-like cells; assay type: cell-based
[3] = patient 301-C202, action taken None

## Cn1nnc2c(C(N)=O)ncn2c1=O [temozolomide, reference compound]
[1]; human, in vivo
  Abdominal pain, Grade ≥3 TEAE, drug related: 0 (0.0%)
  Confusional state, treatment-related TEAE, number of patients: 0
  Confusional state, treatment-related TEAE, percent of patients: (0.0%)
  Constipation, treatment-related TEAE, number of patients: 3
  Constipation, treatment-related TEAE, percent of patients: (15.0%)
  Decreased appetite, treatment-related TEAE, number of patients: 4
  Decreased appetite, treatment-related TEAE, percent of patients: (20.0%)
  Dehydration, Grade ≥3 TEAE, drug related: 0 (0.0%)
  Diarrhoea, treatment-related TEAE, number of patients: 2
  Diarrhoea, treatment-related TEAE, percent of patients: (10.0%)
  Dizziness, treatment-related TEAE, number of patients: 2
  Dizziness, treatment-related TEAE, percent of patients: (10.0%)
  Dose reduction, reason Adverse Event: 1 (5.0%)
  Fatigue, Grade ≥3 TEAE, drug related: 1 (5.0%)
  Fatigue, treatment-related TEAE, number of patients: 11
  Fatigue, treatment-related TEAE, percent of patients: (55.0%)
  Hallucination, Grade ≥3 TEAE, drug related: 0 (0.0%)
  Hallucination, treatment-related TEAE, number of patients: 0
  Hallucination, treatment-related TEAE, percent of patients: (0.0%)
  Headache, Grade ≥3 TEAE, drug related: 0 (0.0%)
  Headache, treatment-related TEAE, number of patients: 0
  Headache, treatment-related TEAE, percent of patients: (0.0%)
  Insomnia, Grade ≥3 TEAE, drug related: 0 (0.0%)
  Muscular weakness, treatment-related TEAE, number of patients: 0
  Muscular weakness, treatment-related TEAE, percent of patients: (0.0%)
  Musculoskeletal pain, Grade ≥3 TEAE, drug related: 0 (0.0%)
  Nausea, treatment-related TEAE, number of patients: 9
  Nausea, treatment-related TEAE, percent of patients: (45.0%)
  Number of Patients with drug Discontinued: 0
  Number of Patients with ≥1 Dose Reduction: 1 (5.0%)
  Ovarian cyst, Grade ≥3 TEAE, drug related: 0 (0.0%)
  Pelvic infection, Grade ≥3 TEAE, drug related: 0 (0.0%)
  Platelet count decreased, Grade ≥3 TEAE, drug related: 1 (5.0%)
  Platelet count decreased, treatment-related TEAE, number of patients: 3
  Platelet count decreased, treatment-related TEAE, percent of patients: (15.0%)
  Rash maculo-papular, treatment-related TEAE, number of patients: 3
  Rash maculo-papular, treatment-related TEAE, percent of patients: (15.0%)
  Vomiting, Grade ≥3 TEAE, drug related: 0 (0.0%)
  Vomiting, treatment-related TEAE, number of patients: 7
  Vomiting, treatment-related TEAE, percent of patients: (35.0%)
[1]; in vivo
  SAE Dehydration, relationship to drug: Not Suspected/
  SAE Fatigue, relationship to drug: Not Suspected/
  SAE Hallucination, relationship to drug: Not Suspected/
  SAE Nausea, relationship to drug: Not Suspected/
  SAE Vomiting, relationship to drug: Not Suspected/
[1]; patient 104-C302, action taken None
  SAE Nephrolithiasis, relationship to drug: Not Suspected/
[1]; patient 301-A202, action taken None
  SAE Confusional state, relationship to drug: Not Suspected/
[1]; patient 301-C202, action taken Dose Delayed
  SAE Ovarian cyst, relationship to drug: Not Suspected/
[1]; [3]
  SAE Convulsion, relationship to drug: Not Suspected/
  SAE Pelvic infection, relationship to drug: Not Suspected/

## CC(C)C[C@H](NC(=O)[C@H](Cc1ccccc1)NC(=O)c1cnccn1)B(O)O [bortezomib, reference compound]
20S Proteasome
  20S Proteasome Activity (% Inhibition), Blood, Peak (2 hr): 81% and 83%
  20S Proteasome Activity (% Inhibition), Blood, Trough: 18% and 13%
  20S Proteasome Activity (% Inhibition), Tumor, Peak (2 hr): 83% and 93%
  20S Proteasome Activity (% Inhibition), Tumor, Trough: 64% and 41%
[2]
  HIF1-α and VEGF levels: induces HIF1-α and VEGF levels
